Test results as given in patent US8987250B2 (Gilead Sciences, Inc., priority 2012, dated 2015).

What follows are molecules tested on HIV-IIIb (assay: Test A: Antiviral Assay in MT4 Cells). Details: Human immunodeficiency virus 1, IIIB, MT4, 120 h, Table 1; MT-4 cells infected with HIV-IIIb, 5 days of incubation, CellTiter-Glo; read-out: EC50.
Type: cell-based
Experimental: The antiviral properties of a compound of the invention may be determined using Test A described below.
Test A: Antiviral Assay in MT4 Cells
For the antiviral assay utilizing MT-4 cells, 0.4 μL of […] test concentration of 3-fold serially diluted compound in DMSO was added to 40 μL of cell growth medium (RPMI 1640, 10% FBS, 1% penicilline/Streptomycine, 1% L-Glutamine, 1% HEPES) in each well of 384-well assay plates (10 concentrations) in quadruplicate.
One mL aliquots of 2×10e6 MT-4 cells were pre-infected for 1 and 3 hours respectively, @ 37° C. with 25 uL (MT4) or of either cell growth medium (mock-infected) or a fresh 1:250 dilution of an HIV-IIIb concentrated ABI stock (0.004m.o.i. for MT4 cells). Infected and uninfected cells were diluted in cell growth medium and 35 uL of 2000 (for MT4) cells was added to each well of the assay plates.
Assay plates were then incubated in a 37° C. incubator. After 5 days of incubation, […] of 2× concentrated CellTiter-Glo™ Reagent (catalog #G7573, Promega Biosciences, Inc., Madison, Wis.) was added to each well of the assay plate. Cell lysis was carried out by incubating at room temperature for 2-3 min and then chemiluminescence was read using the Envision reader (PerkinElmer). […]

SMILES | EC50
Cc1cc2nc(-c3ccnc(-c4cnc(O)nc4)c3)sc2c(-c2ccc(Cl)cc2)c1[C@H](OC(C)(C)C)C(=O)O [Compound 134] | 3230 nM
Cc1cc2nc(-c3ccnc(-c4cnc(N5CCOCC5)nc4)c3)sc2c(-c2ccc(Cl)cc2)c1[C@H](OC(C)(C)C)C(=O)O [Compound 135] | 17 nM
Cc1cc2nc(-c3ccnc(-c4cnc(N5CCN(C)CC5)nc4)c3)sc2c(-c2ccc(Cl)cc2)c1[C@H](OC(C)(C)C)C(=O)O [Compound 136] | 12 nM
Cc1cc2nc(-c3ccnc(-c4cnc(C5CCC5)nc4)c3)sc2c(-c2ccc(Cl)cc2)c1[C@H](OC(C)(C)C)C(=O)O [Compound 138] | 65 nM
Cc1cc2nc(-c3ccnc(-c4ccc5c(c4)c(C4CC4)nn5C)c3)sc2c(-c2ccc(Cl)cc2)c1[C@H](OC(C)(C)C)C(=O)O [Compound 139] | 61 nM
Cc1cc2nc(-c3ccnc(-c4ccc(N5CCN(C)CC5)nc4)c3)sc2c(-c2ccc(Cl)cc2)c1[C@H](OC(C)(C)C)C(=O)O [Compound 140] | 5 nM
Cc1cc2nc(-c3ccnc(-c4cncc(C(=O)O)c4)c3)sc2c(-c2ccc(Cl)cc2)c1[C@H](OC(C)(C)C)C(=O)O [Compound 148] | 2700 nM
Cc1cc2nc(-c3ccnc(-c4cncc(C(N)=O)c4)c3)sc2c(-c2ccc(Cl)cc2)c1[C@H](OC(C)(C)C)C(=O)O [Compound 149] | 153 nM
Cc1cc2nc(-c3cccc(-c4ccc5c(cnn5C)c4)c3)sc2c(-c2ccc3c(c2)C(=O)CCO3)c1[C@H](OC(C)(C)C)C(=O)O [Compound 169] | 33 nM
Cc1cc2nc(-c3cccc(-c4ccc5c(cnn5C)c4)c3)sc2c(-c2ccc3c(c2)CCCO3)c1[C@H](OC(C)(C)C)C(=O)O [Compound 170] | 35 nM

Now from value to molecule:

EC50 | SMILES
21 nM | Cc1cc2nc(-c3cccc(-c4cnc5cnn(C)c5c4)c3)sc2c(-c2ccc(Cl)cc2)c1[C@H](OC(C)(C)C)C(=O)O [Compound 137]
48 nM | Cc1cc2nc(-c3cccc(-c4cnc(N(C)C)nc4)c3)sc2c(-c2ccc(Cl)cc2)c1[C@H](OC(C)(C)C)C(=O)O [Compound 142]
24 nM | COc1ncc(-c2cccc(-c3nc4cc(C)c([C@H](OC(C)(C)C)C(=O)O)c(-c5ccc(Cl)cc5)c4s3)c2)cn1 [Compound 143]
2610 nM | Cc1cc2nc(-c3cccc(-c4cnc(O)nc4)c3)sc2c(-c2ccc(Cl)cc2)c1[C@H](OC(C)(C)C)C(=O)O [Compound 144]
34 nM | Cc1cc2nc(-c3cccc(-c4cn(C)nc4C)c3)sc2c(-c2ccc(Cl)cc2)c1[C@H](OC(C)(C)C)C(=O)O [Compound 145]
92 nM | Cc1cc2nc(-c3cccc(-c4cnn(C5CCCC5)c4)c3)sc2c(-c2ccc(Cl)cc2)c1[C@H](OC(C)(C)C)C(=O)O [Compound 146]
59 nM | Cc1cc2nc(-c3cccc(-c4cnn(CC(C)C)c4)c3)sc2c(-c2ccc(Cl)cc2)c1[C@H](OC(C)(C)C)C(=O)O [Compound 147]
91 nM | Cc1cc2nc(-c3cccc(-c4cnn(Cc5ccccc5)c4)c3)sc2c(-c2ccc(Cl)cc2)c1[C@H](OC(C)(C)C)C(=O)O [Compound 150]
32 nM | Cc1cc2nc(-c3cccc(-c4cnn(C(C)C)c4)c3)sc2c(-c2ccc(Cl)cc2)c1[C@H](OC(C)(C)C)C(=O)O [Compound 151]
15 nM | Cc1cc2nc(-c3cccc(-c4ccc(N5CCN(C)CC5)nc4)c3)sc2c(-c2ccc(Cl)cc2)c1[C@H](OC(C)(C)C)C(=O)O [Compound 153]
16 nM | Cc1cc2nc(-c3ccnc(-c4cnn(C)c4)c3)sc2c(-c2ccc(Cl)cc2)c1[C@H](OC(C)(C)C)C(=O)O [Compound 154]
66 nM | Cc1cc2nc(-c3ccnc(-c4cccc(C(N)=O)c4)c3)sc2c(-c2ccc(Cl)cc2)c1[C@H](OC(C)(C)C)C(=O)O [Compound 155]
26 nM | Cc1cc2nc(-c3ccnc(-c4cccc(C#N)c4)c3)sc2c(-c2ccc(Cl)cc2)c1[C@H](OC(C)(C)C)C(=O)O [Compound 156]
29 nM | Cc1cc2nc(-c3cncc(-c4ccc5c(c4)ncn5C)c3)sc2c(-c2ccc(Cl)cc2)c1[C@H](OC(C)(C)C)C(=O)O [Compound 157]
46 nM | Cc1cc2nc(-c3cccc(-c4ccnn4C)c3)sc2c(-c2ccc(Cl)cc2)c1[C@H](OC(C)(C)C)C(=O)O [Compound 159]
136 nM | COc1ncccc1-c1cccc(-c2nc3cc(C)c([C@H](OC(C)(C)C)C(=O)O)c(-c4ccc(Cl)cc4)c3s2)c1 [Compound 160]
116 nM | COc1ccncc1-c1cccc(-c2nc3cc(C)c([C@H](OC(C)(C)C)C(=O)O)c(-c4ccc(Cl)cc4)c3s2)c1 [Compound 161]
350 nM | Cc1cc2nc(-c3cccc(-c4ccccc4)c3F)sc2c(-c2ccc(Cl)cc2)c1[C@H](OC(C)(C)C)C(=O)O [Compound 162]

Same assay, conditions: Human immunodeficiency virus 1, IIIB, MT4, 120 h, Table 2; MT-4 cells infected with HIV-IIIb, 5 days of incubation, CellTiter-Glo; read-out: EC50

SMILES | EC50
CCn1cc2cc(-c3cc(-c4nc5cc(C)c([C@H](OC(C)(C)C)C(=O)O)c(-c6ccc(Cl)cc6)c5s4)ccn3)ccc2n1 [Compound 173, (S)-2-tert-butoxy-2-(7-(4-chlorophenyl)-2-(2-(2-ethyl-2H-indazol-5-yl)pyridin-4-yl)-5-methylbenzo[d]thiazol-6-yl)acetic acid] | 11 nM
CCn1ncc2cc(-c3cc(-c4nc5cc(C)c([C@H](OC(C)(C)C)C(=O)O)c(-c6ccc(Cl)cc6)c5s4)ccn3)ccc21 [Compound 174, (S)-2-tert-butoxy-2-(7-(4-chlorophenyl)-2-(2-(1-ethyl-1H-indazol-5-yl)pyridin-4-yl)-5-methylbenzo[d]thiazol-6-yl)acetic acid] | 26 nM
Cc1cc2nc(-c3ccnc(-c4ccc5c(cnn5C5CC5)c4)c3)sc2c(-c2ccc(Cl)cc2)c1[C@H](OC(C)(C)C)C(=O)O [Compound 175, (S)-2-tert-butoxy-2-(7-(4-chlorophenyl)-2-(2-(1-cyclopropyl-1H-indazol-5-yl)pyridin-4-yl)-5-methylbenzo[d]thiazol-6-yl)acetic acid] | 33 nM
Cc1cc2nc(-c3ccnc(-c4ccc5nn(C(F)F)cc5c4)c3)sc2c(-c2ccc(Cl)cc2)c1[C@H](OC(C)(C)C)C(=O)O [Compound 176, (S)-2-tert-butoxy-2-(7-(4-chlorophenyl)-2-(2-(2-(difluoromethyl)-2H-indazol-5-yl)pyridin-4-yl)-5-methylbenzo[d]thiazol-6-yl)acetic acid] | 18 nM
Cc1cc2nc(-c3ccnc(-c4ccc5c(cnn5C(F)F)c4)c3)sc2c(-c2ccc(Cl)cc2)c1[C@H](OC(C)(C)C)C(=O)O [Compound 177, (S)-2-tert-butoxy-2-(7-(4-chlorophenyl)-2-(2-(1-(difluoromethyl)-1H-indazol-5-yl)pyridin-4-yl)-5-methylbenzo[d]thiazol-6-yl)acetic acid] | 39 nM
Cc1cc2nc(-c3ccnc(-c4ccc5c(cnn5C(F)(F)F)c4)c3)sc2c(-c2ccc(Cl)cc2)c1[C@H](OC(C)(C)C)C(=O)O [Compound 178, (S)-2-tert-butoxy-2-(7-(4-chlorophenyl)-5-methyl-2-(2-(1-(trifluoromethyl)-1H-indazol-5-yl)pyridin-4-yl)benzo[d]thiazol-6-yl)acetic acid] | 89 nM
Cc1cc2nc(-c3ccnc(-c4ccc5c(cnn5C5CNC5)c4)c3)sc2c(-c2ccc(Cl)cc2)c1[C@H](OC(C)(C)C)C(=O)O [Compound 179, (S)-2-(2-(2-(1-(azetidin-3-yl)-1H-indazol-5-yl)pyridin-4-yl)-7-(4-chlorophenyl)-5-methylbenzo[d]thiazol-6-yl)-2-tert-butoxyacetic acid] | 73 nM
